What was measured:
Test in all cases: Kinome-wide inhibition profiling
Assay type in all cases: biochemical
PKN2 = target: T1, PKN2 (Homo sapiens, UniProt Q16513)
T1 construct: purchased Reaction Biology Corp
Experimental: (§1) In vitro CDK12/cyclinK assays for all compounds and in vitro kinome-wide inhibition profiling of 30d at 10 μM were performed by a CRO company (Reaction Biology Corp., San Diego, CA, USA).

EPHA4 = target: T2, EPHA4 (Homo sapiens, UniProt P54764)
T2 construct: purchased Reaction Biology Corp
Experimental: as §1

Kit = target: T3, Kit (Homo sapiens, UniProt P10721)
T3 construct: purchased Reaction Biology Corp
Experimental: as §1

RSK3 = target: T4, RSK3 (Homo sapiens, UniProt Q15349)
T4 construct: purchased Reaction Biology Corp
Experimental: as §1

CAMKK1 = target: T5, CAMKK1 (Homo sapiens, UniProt Q8N5S9)
T5 construct: purchased Reaction Biology Corp
Experimental: as §1

RSK1 = target: T6, RSK1 (Homo sapiens, UniProt Q15418)
T6 construct: purchased Reaction Biology Corp
Experimental: as §1

CAMK1g = target: T7, CAMK1g (Homo sapiens, UniProt Q96NX5)
T7 construct: purchased Reaction Biology Corp
Experimental: as §1

NLK = target: T8, NLK (Homo sapiens, UniProt Q9UBE8)
T8 construct: purchased Reaction Biology Corp
Experimental: as §1

CSNK2A1 = target: T9, CSNK2A1 (Homo sapiens, UniProt P68400)
T9 construct: purchased Reaction Biology Corp
Experimental: as §1

VEGFR2 = target: T10, VEGFR2 (Homo sapiens, UniProt P35968)
T10 construct: purchased Reaction Biology Corp
Experimental: as §1

RET = target: T11, RET (Homo sapiens, UniProt P07949)
T11 construct: purchased Reaction Biology Corp
Experimental: as §1

VRK1 = target: T12, VRK1 (Homo sapiens, UniProt Q99986)
T12 construct: purchased Reaction Biology Corp
Experimental: as §1

GSK3a = target: T13, GSK3a (Homo sapiens, UniProt P49840)
T13 construct: purchased Reaction Biology Corp
Experimental: as §1

GSK3b = target: T14, GSK3b (Homo sapiens, UniProt P49841)
T14 construct: purchased Reaction Biology Corp
Experimental: as §1

PHKg2 = target: T15, PHKg2 (Homo sapiens, UniProt P15735)
T15 construct: purchased Reaction Biology Corp
Experimental: as §1

SRPK1 = target: T16, SRPK1 (Homo sapiens, UniProt Q96SB4)
T16 construct: purchased Reaction Biology Corp
Experimental: as §1

TAOK2 = target: T17, TAOK2 (Homo sapiens, UniProt Q9UL54)
T17 construct: purchased Reaction Biology Corp
Experimental: as §1

PDGFRa = target: T18, PDGFRa (Homo sapiens, UniProt P16234)
T18 construct: purchased Reaction Biology Corp
Experimental: as §1

STK16 = target: T19, STK16 (Homo sapiens, UniProt O75716)
T19 construct: purchased Reaction Biology Corp
Experimental: as §1

EPHA7 = target: T20, EPHA7 (Homo sapiens, UniProt Q15375)
T20 construct: purchased Reaction Biology Corp
Experimental: as §1

GRK6 = target: T21, GRK6 (Homo sapiens, UniProt P43250)
T21 construct: purchased Reaction Biology Corp
Experimental: as §1

MEKK6 = target: T22, MEKK6 (Homo sapiens, UniProt O95382)
T22 construct: purchased Reaction Biology Corp
Experimental: as §1

BMPR2 = target: T23, BMPR2 (Homo sapiens, UniProt Q13873)
T23 construct: purchased Reaction Biology Corp
Experimental: as §1

SYK = target: T24, SYK (Homo sapiens, UniProt P43405)
T24 construct: purchased Reaction Biology Corp
Experimental: as §1

VRK2 = target: T25, VRK2 (Homo sapiens, UniProt Q86Y07)
T25 construct: purchased Reaction Biology Corp
Experimental: as §1

MELK = target: T26, MELK (Homo sapiens, UniProt Q14680)
T26 construct: purchased Reaction Biology Corp
Experimental: as §1

MYLK2 = target: T27, MYLK2 (Homo sapiens, UniProt Q9H1R3)
T27 construct: purchased Reaction Biology Corp
Experimental: as §1

MLK2 = target: T28, MLK2 (Homo sapiens, UniProt Q02779)
T28 construct: purchased Reaction Biology Corp
Experimental: as §1

PCTK3 = target: T29, PCTK3 (Homo sapiens, UniProt Q07002)
T29 construct: purchased Reaction Biology Corp
Experimental: as §1

GRK1 = target: T30, GRK1 (Homo sapiens, UniProt Q15835)
T30 construct: purchased Reaction Biology Corp
Experimental: as §1

PYK2 = target: T31, PYK2 (Homo sapiens, UniProt Q14289)
T31 construct: purchased Reaction Biology Corp
Experimental: as §1

TGFBR1 = target: T32, TGFBR1 (Homo sapiens, UniProt P36897)
T32 construct: purchased Reaction Biology Corp
Experimental: as §1

ACK1 = target: T33, ACK1 (Homo sapiens, UniProt Q07912)
T33 construct: purchased Reaction Biology Corp
Experimental: as §1

TNK1 = target: T34, TNK1 (Homo sapiens, UniProt Q13470)
T34 construct: purchased Reaction Biology Corp
Experimental: as §1

GRK3 = target: T35, GRK3 (Homo sapiens, UniProt P35626)
T35 construct: purchased Reaction Biology Corp
Experimental: as §1

SIK2 = target: T36, SIK2 (Homo sapiens, UniProt Q9H0K1)
T36 construct: purchased Reaction Biology Corp
Experimental: as §1

CLK3 = target: T37, CLK3 (Homo sapiens, UniProt P49761)
T37 construct: purchased Reaction Biology Corp
Experimental: as §1

ERBB4 = target: T38, ERBB4 (Homo sapiens, UniProt Q15303)
T38 construct: purchased Reaction Biology Corp
Experimental: as §1

CAMK2b = target: T39, CAMK2b (Homo sapiens, UniProt Q13554)
T39 construct: purchased Reaction Biology Corp
Experimental: as §1

P38-gamma = target: T40, P38-gamma (Homo sapiens, UniProt P53778)
T40 construct: purchased Reaction Biology Corp
Experimental: as §1

JAK1 = target: T41, JAK1 (Homo sapiens, UniProt P23458)
T41 construct: purchased Reaction Biology Corp
Experimental: as §1

EPHB2 = target: T42, EPHB2 (Homo sapiens, UniProt P29323)
T42 construct: purchased Reaction Biology Corp
Experimental: as §1

T2 sequence (P54764 20-986): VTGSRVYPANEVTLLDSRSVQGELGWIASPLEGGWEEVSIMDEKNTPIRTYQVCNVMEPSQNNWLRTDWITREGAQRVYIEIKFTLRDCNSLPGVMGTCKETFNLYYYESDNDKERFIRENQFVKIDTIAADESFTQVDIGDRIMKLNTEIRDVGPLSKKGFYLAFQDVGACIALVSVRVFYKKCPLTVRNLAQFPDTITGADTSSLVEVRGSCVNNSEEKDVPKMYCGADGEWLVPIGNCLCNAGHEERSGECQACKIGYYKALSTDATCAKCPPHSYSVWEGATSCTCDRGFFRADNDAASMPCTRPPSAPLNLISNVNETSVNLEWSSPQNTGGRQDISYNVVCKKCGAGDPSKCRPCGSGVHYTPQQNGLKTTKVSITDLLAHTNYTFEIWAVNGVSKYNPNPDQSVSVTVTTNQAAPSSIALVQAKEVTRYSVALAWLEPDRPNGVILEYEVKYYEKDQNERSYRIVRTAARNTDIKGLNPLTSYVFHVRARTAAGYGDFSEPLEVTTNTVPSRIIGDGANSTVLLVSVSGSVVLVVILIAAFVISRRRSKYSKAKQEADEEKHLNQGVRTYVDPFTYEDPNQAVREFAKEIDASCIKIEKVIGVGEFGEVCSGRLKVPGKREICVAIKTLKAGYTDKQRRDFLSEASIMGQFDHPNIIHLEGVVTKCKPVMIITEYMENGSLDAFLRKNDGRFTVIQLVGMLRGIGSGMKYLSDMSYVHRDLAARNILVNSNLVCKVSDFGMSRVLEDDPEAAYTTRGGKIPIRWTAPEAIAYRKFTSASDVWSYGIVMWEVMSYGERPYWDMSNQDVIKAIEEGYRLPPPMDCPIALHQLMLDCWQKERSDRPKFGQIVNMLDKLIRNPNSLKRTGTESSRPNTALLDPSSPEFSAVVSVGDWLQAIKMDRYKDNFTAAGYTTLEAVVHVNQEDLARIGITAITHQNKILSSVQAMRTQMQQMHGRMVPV
T29 sequence (Q07002 whole entry): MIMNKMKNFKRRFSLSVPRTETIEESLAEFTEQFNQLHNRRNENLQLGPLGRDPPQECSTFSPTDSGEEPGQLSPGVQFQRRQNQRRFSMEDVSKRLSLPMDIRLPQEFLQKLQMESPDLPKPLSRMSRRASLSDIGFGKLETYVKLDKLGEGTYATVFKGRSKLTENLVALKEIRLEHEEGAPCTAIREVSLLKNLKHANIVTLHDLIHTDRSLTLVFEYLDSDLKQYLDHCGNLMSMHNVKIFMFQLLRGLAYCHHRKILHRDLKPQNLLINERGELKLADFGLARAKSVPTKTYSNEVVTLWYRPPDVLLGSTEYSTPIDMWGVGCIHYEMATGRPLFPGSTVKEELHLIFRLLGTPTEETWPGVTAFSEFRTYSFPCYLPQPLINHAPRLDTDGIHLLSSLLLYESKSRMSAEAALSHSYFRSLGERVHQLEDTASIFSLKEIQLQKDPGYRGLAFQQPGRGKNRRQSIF
T29 sequence (Q8ND76 whole entry partner): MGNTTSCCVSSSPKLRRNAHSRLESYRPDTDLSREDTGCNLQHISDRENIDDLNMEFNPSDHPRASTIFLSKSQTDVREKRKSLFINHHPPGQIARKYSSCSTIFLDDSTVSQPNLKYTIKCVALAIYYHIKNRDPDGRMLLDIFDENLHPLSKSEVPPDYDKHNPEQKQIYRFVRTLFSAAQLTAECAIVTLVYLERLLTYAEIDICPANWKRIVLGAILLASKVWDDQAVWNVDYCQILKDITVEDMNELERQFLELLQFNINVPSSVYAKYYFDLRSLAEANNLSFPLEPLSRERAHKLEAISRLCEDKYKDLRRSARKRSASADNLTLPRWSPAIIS
T42 sequence (P29323 19-1055): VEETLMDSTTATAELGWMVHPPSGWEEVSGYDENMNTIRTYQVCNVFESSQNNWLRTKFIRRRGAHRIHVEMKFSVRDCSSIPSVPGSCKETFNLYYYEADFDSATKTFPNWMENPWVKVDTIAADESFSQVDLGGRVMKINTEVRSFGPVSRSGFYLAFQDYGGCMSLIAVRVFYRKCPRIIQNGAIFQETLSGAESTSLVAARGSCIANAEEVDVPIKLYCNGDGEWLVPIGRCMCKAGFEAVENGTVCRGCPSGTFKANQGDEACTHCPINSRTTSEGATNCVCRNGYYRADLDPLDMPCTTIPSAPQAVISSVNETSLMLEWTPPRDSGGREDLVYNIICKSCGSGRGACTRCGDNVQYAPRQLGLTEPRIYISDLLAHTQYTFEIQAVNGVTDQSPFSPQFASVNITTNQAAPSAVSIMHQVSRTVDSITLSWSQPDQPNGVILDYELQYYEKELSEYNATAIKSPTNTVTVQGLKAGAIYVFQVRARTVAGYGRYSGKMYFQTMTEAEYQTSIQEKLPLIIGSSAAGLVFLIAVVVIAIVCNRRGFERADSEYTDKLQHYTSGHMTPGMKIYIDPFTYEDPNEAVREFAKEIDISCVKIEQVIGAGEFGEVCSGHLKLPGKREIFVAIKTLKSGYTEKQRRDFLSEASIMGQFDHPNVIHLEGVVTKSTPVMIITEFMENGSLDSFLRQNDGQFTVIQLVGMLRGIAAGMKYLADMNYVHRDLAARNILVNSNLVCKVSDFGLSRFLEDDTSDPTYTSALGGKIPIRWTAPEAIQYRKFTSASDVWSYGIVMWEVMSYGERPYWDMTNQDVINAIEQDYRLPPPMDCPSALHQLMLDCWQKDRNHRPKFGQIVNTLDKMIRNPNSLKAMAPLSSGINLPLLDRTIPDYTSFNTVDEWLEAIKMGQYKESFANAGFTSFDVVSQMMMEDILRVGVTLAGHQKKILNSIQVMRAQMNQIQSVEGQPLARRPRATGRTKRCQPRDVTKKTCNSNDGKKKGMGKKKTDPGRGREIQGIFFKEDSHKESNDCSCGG
T35 sequence (P35626 whole entry): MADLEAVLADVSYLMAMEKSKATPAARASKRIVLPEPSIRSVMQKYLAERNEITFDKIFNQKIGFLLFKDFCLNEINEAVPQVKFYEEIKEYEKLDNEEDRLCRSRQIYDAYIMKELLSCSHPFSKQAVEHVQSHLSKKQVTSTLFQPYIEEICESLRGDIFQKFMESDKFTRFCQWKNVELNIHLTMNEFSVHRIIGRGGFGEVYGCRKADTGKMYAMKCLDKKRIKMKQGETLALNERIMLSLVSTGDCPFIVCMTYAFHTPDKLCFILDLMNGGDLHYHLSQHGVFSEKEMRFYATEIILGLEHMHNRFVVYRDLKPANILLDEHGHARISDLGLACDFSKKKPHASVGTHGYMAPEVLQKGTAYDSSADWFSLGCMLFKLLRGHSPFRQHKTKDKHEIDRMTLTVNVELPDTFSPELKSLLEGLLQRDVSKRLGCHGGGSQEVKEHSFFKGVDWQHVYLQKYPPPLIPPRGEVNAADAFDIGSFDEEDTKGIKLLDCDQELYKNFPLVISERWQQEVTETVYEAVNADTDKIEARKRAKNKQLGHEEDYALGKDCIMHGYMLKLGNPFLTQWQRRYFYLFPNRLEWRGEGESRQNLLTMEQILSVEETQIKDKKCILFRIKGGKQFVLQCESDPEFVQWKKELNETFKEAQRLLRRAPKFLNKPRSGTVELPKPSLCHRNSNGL
T18 sequence (P16234 24-1089): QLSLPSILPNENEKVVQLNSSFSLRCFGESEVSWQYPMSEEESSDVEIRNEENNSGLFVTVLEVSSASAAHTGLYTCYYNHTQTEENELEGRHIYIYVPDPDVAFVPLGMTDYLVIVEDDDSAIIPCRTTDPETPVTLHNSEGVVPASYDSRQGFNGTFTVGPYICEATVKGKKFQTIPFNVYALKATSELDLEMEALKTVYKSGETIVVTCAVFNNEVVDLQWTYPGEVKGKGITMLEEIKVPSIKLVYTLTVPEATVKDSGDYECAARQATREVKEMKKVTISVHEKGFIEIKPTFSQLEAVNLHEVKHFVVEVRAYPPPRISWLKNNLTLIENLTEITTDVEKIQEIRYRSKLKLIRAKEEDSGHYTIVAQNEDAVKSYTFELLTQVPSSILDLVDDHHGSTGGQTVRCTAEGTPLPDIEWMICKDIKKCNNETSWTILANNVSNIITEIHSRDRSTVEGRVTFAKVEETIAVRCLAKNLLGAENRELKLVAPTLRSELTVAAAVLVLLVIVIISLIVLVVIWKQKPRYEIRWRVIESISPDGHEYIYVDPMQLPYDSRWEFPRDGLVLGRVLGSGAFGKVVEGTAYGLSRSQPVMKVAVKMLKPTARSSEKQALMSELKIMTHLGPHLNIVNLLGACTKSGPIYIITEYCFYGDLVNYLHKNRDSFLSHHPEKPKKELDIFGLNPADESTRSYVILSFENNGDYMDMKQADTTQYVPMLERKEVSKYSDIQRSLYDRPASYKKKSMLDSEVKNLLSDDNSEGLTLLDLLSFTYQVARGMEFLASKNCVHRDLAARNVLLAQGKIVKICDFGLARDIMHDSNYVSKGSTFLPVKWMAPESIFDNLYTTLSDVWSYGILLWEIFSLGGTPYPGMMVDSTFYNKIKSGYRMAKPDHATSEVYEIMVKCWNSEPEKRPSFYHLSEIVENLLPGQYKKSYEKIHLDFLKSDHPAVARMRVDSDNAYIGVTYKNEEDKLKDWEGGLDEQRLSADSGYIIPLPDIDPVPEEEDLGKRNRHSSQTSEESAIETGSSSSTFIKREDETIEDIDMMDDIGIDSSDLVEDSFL
T9 sequence (P68400 whole entry): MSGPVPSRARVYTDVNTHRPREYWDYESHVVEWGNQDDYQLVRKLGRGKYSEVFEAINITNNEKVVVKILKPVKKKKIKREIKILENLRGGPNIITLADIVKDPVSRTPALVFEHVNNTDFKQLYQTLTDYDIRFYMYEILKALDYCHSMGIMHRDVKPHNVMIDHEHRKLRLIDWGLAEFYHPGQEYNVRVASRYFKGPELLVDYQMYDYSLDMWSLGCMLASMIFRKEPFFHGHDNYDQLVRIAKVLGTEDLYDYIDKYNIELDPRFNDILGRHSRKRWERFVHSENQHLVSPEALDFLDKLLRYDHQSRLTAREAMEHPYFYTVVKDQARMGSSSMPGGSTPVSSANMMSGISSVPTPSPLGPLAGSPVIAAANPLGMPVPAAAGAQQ

CCn1cnc2c(NCc3ccc(-c4ccccn4)nc3)nc(-c3ccc(N)nc3)nc21 [Compound 30d, N-([2,2′-Bipyridin]-5-ylmethyl)-2-(6-aminopyridin-3-yl)-9-ethyl-9H-purin-6-amine]
remaining activity at 10 µM (PKN2): 85.8% | inhibition at 10 µM (EPHA4): > 95% | remaining activity at 10 µM (EPHA4): 3.6% | remaining activity at 10 µM (Kit): 14.2% | remaining activity at 10 µM (RSK3): 58.1% | remaining activity at 10 µM (CAMKK1): 18.7% | remaining activity at 10 µM (RSK1): 59.1% | remaining activity at 10 µM (CAMK1g): 54.3% | remaining activity at 10 µM (NLK): 24.8% | remaining activity at 10 µM (CSNK2A1): 84.2% | remaining activity at 10 µM (VEGFR2): 88.6% | remaining activity at 10 µM (RET): 79.4% | remaining activity at 10 µM (VRK1): 87.3% | remaining activity at 10 µM (GSK3a): 10.6% | remaining activity at 10 µM (GSK3b): 5.8% | remaining activity at 10 µM (PHKg2): 56.9% | remaining activity at 10 µM (SRPK1): 54.3% | remaining activity at 10 µM (TAOK2): 23.8% | remaining activity at 10 µM (PDGFRa): 52.8% | remaining activity at 10 µM (STK16): 35.9% | remaining activity at 10 µM (EPHA7): 31.3% | remaining activity at 10 µM (GRK6): 80.6% | remaining activity at 10 µM (MEKK6): 109% | remaining activity at 10 µM (BMPR2): 52.4% | remaining activity at 10 µM (SYK): 48.4% | remaining activity at 10 µM (VRK2): 96.6% | remaining activity at 10 µM (MELK): 21.2% | remaining activity at 10 µM (MYLK2): 60% | remaining activity at 10 µM (MLK2): 62.3% | inhibition at 10 µM (PCTK3; CDK18): > 95% | remaining activity at 10 µM (PCTK3; PCTK3 (listed as CDK18 in Figure 6)): 2.5% | remaining activity at 10 µM (GRK1): 76.3% | remaining activity at 10 µM (PYK2): 47.5% | remaining activity at 10 µM (TGFBR1): 112% | remaining activity at 10 µM (ACK1): 13.7% | remaining activity at 10 µM (TNK1): 91.3% | remaining activity at 10 µM (GRK3): 102% | remaining activity at 10 µM (SIK2): 35.9% | remaining activity at 10 µM (CLK3): 94.6% | remaining activity at 10 µM (ERBB4): 73% | remaining activity at 10 µM (CAMK2b): 65.2% | remaining activity at 10 µM (P38-gamma): 118% | remaining activity at 10 µM (JAK1): 92.1% | inhibition at 10 µM (EPHB2): > 95% | remaining activity at 10 µM (EPHB2): 2.5%
